Results from US7655808B2, “Leptomycin compounds” (priority 2004, dated 2010).
Read-outs that look alike come from different tables or passages of the source.

Tests used:
NCI/ADR = assay: Inhibition of proliferation / cytotoxicity, NCI/ADR; type: cell-based; details: NCI/ADR multi-drug resistant breast cancer cell line, read-out: Tumor Cell Line (IC50, nM) NCI/ADR
Method: (§1) The biological activity of compounds of this invention was evaluated by measuring their inhibitory effect on the proliferation of various tumor cell lines. MCF-7, A549, and SKOV-3 are human breast, lung, and ovary cancer cell lines, respectively. NCI/ADR is a multi-drug resistant breast cancer cell line. CCRF-CEM and CCRF-CEM/PTX are human leukemia cell lines, the latter being a paclitaxel-resistant subline. LNCaP is a prostate cancer cell line.

MCF-7 = assay: Inhibition of proliferation / cytotoxicity, MCF-7; type: cell-based; details: MCF-7 human breast cancer cell line, read-out: Tumor Cell Line (IC50, nM) MCF-7
Method: as §1

CCRF-CEM = assay: Inhibition of proliferation / cytotoxicity, CCRF-CEM; type: cell-based; details: CCRF-CEM human leukemia cell line; read-out: Tumor Cell Line (IC50, nM) CCRF-CEM
Method: as §1

CCRF-CEM/PTX = assay: Inhibition of proliferation / cytotoxicity, CCRF-CEM/PTX; type: cell-based; details: CCRF-CEM/PTX paclitaxel-resistant human leukemia subline; read-out: Tumor Cell Line (IC50, nM) CCRF-CEM/PTX
Method: as §1

A549 = assay: Inhibition of proliferation / cytotoxicity, A549; type: cell-based; details: A549 human lung cancer cell line; read-out: Tumor Cell Line (IC50, nM) A549
Method: as §1

SKOV-3 = assay: Inhibition of proliferation / cytotoxicity, SKOV-3; type: cell-based; details: SKOV-3 human ovary cancer cell line, read-out: Tumor Cell Line (IC50, nM) SKOV-3
Method: as §1

LNCaP = assay: Inhibition of proliferation / cytotoxicity, LNCaP; type: cell-based; details: LNCaP prostate cancer cell line, read-out: Tumor Cell Line (IC50, nM) LNCaP
Method: as §1

[1] = Mouse maximum tolerated dose, single dose intravenous; type: in vivo; details: mice, single dose intravenous administration
Method: The maximum tolerated dose (MTD) in mice, upon single dose intravenous administration was determined for a representative selection of compounds. The data are summarized in Table 4, with comparative data for LMB included.

K562 cells = assay: Cytotoxicity against Bcr-Abl positive K562 cells; type: cell-based; details: K562, Bcr-Abl positive CML cell line
Source text: Data was also obtained for the cytotoxicity of several compounds of this invention against K562, a Bcr-Abl positive CML cell line, as shown in Table 3 with comparative data for LMB included.

MB 49 cells = assay: Cytotoxicity against MB 49 murine bladder cancer cells; type: cell-based
Source text: Table 5 presents data on the cytotoxicity of LMB and selected compounds of this invention against MB 49 cells, a line of murine bladder cancer cells.

UMUC-3 = assay: Cytotoxicity against human bladder cancer cells UMUC-3; type: cell-based; details: UMUC3; UMUC-3 human bladder cancer cells
Method: (§2) Additionally, the cytotoxicity of LMB was determined against two lines of human bladder cancer cells (UMUC-3 and T24).

mammalian cells = details: Hamamoto et al., J. Antibiotics 1983; cited from earlier work
[2] = phase 1 trial halted in 1994; cited from earlier work
T24 = assay: Cytotoxicity against human bladder cancer cells T24; type: cell-based; details: T-24
Method: as §2

[3] = Kudo et al., Exp. Cell Res. 1998; cited from earlier work

## CCC(C=CC1OC(=O)C=CC1C)=CC(C)CC=CC(C)=CC(C)C(=O)C(C)C(O)C(C)CC(C)=CC(=O)NC (stereo not drawn) [Compound 1]
NCI/ADR
  IC50: 2.1 nM
MCF-7
  IC50: 0.27 nM
CCRF-CEM
  IC50: 0.69 nM
CCRF-CEM/PTX
  IC50: 0.46 nM
A549
  IC50: 0.36 nM
SKOV-3
  IC50: 1.7 nM
LNCaP
  IC50: 0.8 nM
[1]
  Mouse MTD: 5 mg/kg

## CCC(C=CC1OC(=O)C=CC1C)=CC(C)CC=CC(C)=CC(C)C(=O)C(C)C(O)C(C)CC(C)=CC(=O)NCCO (stereo not drawn) [Compound 2]
NCI/ADR
  IC50: 27 nM
MCF-7
  IC50: 0.78 nM
CCRF-CEM
  IC50: 2.4 nM
CCRF-CEM/PTX
  IC50: 2.8 nM
A549
  IC50: 2.2 nM
SKOV-3
  IC50: 2.6 nM

## CCC(C=CC1OC(=O)C=CC1C)=CC(C)CC=CC(C)=CC(C)C(=O)C(C)C(O)C(C)CC(C)=CC(=O)NCc1ccc(-c2ccccc2)cc1 (stereo not drawn) [Compound 3]
NCI/ADR
  IC50: 150 nM
MCF-7
  IC50: 3.7 nM
CCRF-CEM
  IC50: 3.5 nM
CCRF-CEM/PTX
  IC50: 17 nM
A549
  IC50: 13 nM
SKOV-3
  IC50: 13 nM

## CCC(C=CC1OC(=O)C=CC1C)=CC(C)CC=CC(C)=CC(C)C(=O)C(C)C(O)C(C)CC(C)=CC(=O)NCCc1cccnc1 (stereo not drawn) [Compound 4]
NCI/ADR
  IC50: 19 nM
MCF-7
  IC50: 0.32 nM
CCRF-CEM
  IC50: 1 nM
CCRF-CEM/PTX
  IC50: 1.4 nM
K562 cells
  IC50: 1.7 nM
A549
  IC50: 0.84 nM
SKOV-3
  IC50: 2.8 nM
LNCaP
  IC50: 0.5 nM
MB 49 cells
  IC50: 5.9 nM
[1]
  Mouse MTD: 40 mg/kg

## CCC(C=CC1OC(=O)C=CC1C)=CC(C)CC=CC(C)=CC(C)C(=O)C(C)C(O)C(C)CC(C)=CC(=O)Nc1ccc2cn[nH]c2c1 (stereo not drawn) [Compound 5]
NCI/ADR
  IC50: 34 nM
MCF-7
  IC50: 2 nM
CCRF-CEM
  IC50: 3.1 nM
CCRF-CEM/PTX
  IC50: 9 nM
A549
  IC50: 3.3 nM
SKOV-3
  IC50: 5.9 nM

## CCC(C=CC1OC(=O)C=CC1C)=CC(C)CC=CC(C)=CC(C)C(=O)C(C)C(O)C(C)CC(C)=CC(=O)NCCNC(=O)OC(C)(C)C (stereo not drawn) [Compound 6]
NCI/ADR
  IC50: 34 nM
MCF-7
  IC50: 0.32 nM
CCRF-CEM
  IC50: 1.1 nM
CCRF-CEM/PTX
  IC50: 2.3 nM
A549
  IC50: 1.3 nM
SKOV-3
  IC50: 1.2 nM

## CCC(C=CC1OC(=O)C=CC1C)=CC(C)CC=CC(C)=CC(C)C(=O)C(C)C(O)C(C)CC(C)=CC(=O)NCCN(C)C (stereo not drawn) [Compound 7]
NCI/ADR
  IC50: 110 nM
MCF-7
  IC50: 0.61 nM
CCRF-CEM
  IC50: 1.4 nM
CCRF-CEM/PTX
  IC50: 3.1 nM
A549
  IC50: 2.2 nM
SKOV-3
  IC50: 2.8 nM
LNCaP
  IC50: 0.7 nM
[1]
  Mouse MTD: 15 mg/kg

## CCC(C=CC1OC(=O)C=CC1C)=CC(C)CC=CC(C)=CC(C)C(=O)C(C)C(O)C(C)CC(C)=CC(=O)NCCCN1CCOCC1 (stereo not drawn) [Compound 8]
NCI/ADR
  IC50: 39 nM
MCF-7
  IC50: 0.3 nM
CCRF-CEM
  IC50: 0.98 nM
CCRF-CEM/PTX
  IC50: 2.1 nM
K562 cells
  IC50: 1 nM
A549
  IC50: 0.84 nM
SKOV-3
  IC50: 2.5 nM
LNCaP
  IC50: 0.5 nM
MB 49 cells
  IC50: 6.8 nM
[1]
  Mouse MTD: 20 mg/kg

## CCC(C=CC1OC(=O)C=CC1C)=CC(C)CC=CC(C)=CC(C)C(=O)C(C)C(O)C(C)CC(C)=CC(=O)NCCOc1ccccc1 (stereo not drawn) [Compound 9]
NCI/ADR
  IC50: 37 nM
MCF-7
  IC50: 0.64 nM
CCRF-CEM
  IC50: 1.9 nM
CCRF-CEM/PTX
  IC50: 2.5 nM
A549
  IC50: 2.8 nM
SKOV-3
  IC50: 4.3 nM

## CCC(C=CC1OC(=O)C=CC1C)=CC(C)CC=CC(C)=CC(C)C(=O)C(C)C(O)C(C)CC(C)=CC(=O)NCC(=O)OC (stereo not drawn) [Compound 10]
NCI/ADR
  IC50: 4.6 nM
MCF-7
  IC50: 0.3 nM
CCRF-CEM
  IC50: 0.63 nM
CCRF-CEM/PTX
  IC50: 0.5 nM
A549
  IC50: 1.4 nM
SKOV-3
  IC50: 2.7 nM
LNCaP
  IC50: 0.8 nM

## CCC(C=CC1OC(=O)C=CC1C)=CC(C)CC=CC(C)=CC(C)C(=O)C(C)C(O)C(C)CC(C)=CC(=O)NCCC1OCCO1 (stereo not drawn) [Compound 11]
NCI/ADR
  IC50: 5.8 nM
MCF-7
  IC50: 0.3 nM
CCRF-CEM
  IC50: 0.43 nM
CCRF-CEM/PTX
  IC50: 0.47 nM
A549
  IC50: 0.67 nM
SKOV-3
  IC50: 1.5 nM

## CCC(C=CC1OC(=O)C=CC1C)=CC(C)CC=CC(C)=CC(C)C(=O)C(C)C(O)C(C)CC(C)=CC(=O)NCCCCNC(=O)OC(C)(C)C (stereo not drawn) [Compound 14]
NCI/ADR
  IC50: 33 nM
MCF-7
  IC50: 0.3 nM
CCRF-CEM
  IC50: 1.7 nM
CCRF-CEM/PTX
  IC50: 2.4 nM
A549
  IC50: 1.6 nM
SKOV-3
  IC50: 2.5 nM

## CCC(C=CC1OC(=O)C=CC1C)=CC(C)CC=CC(C)=CC(C)C(=O)C(C)C(O)C(C)CC(C)=CC(=O)NCCN (stereo not drawn) [Compound 15]
NCI/ADR
  IC50: 630 nM
MCF-7
  IC50: 4.6 nM
CCRF-CEM
  IC50: 17 nM
CCRF-CEM/PTX
  IC50: 110 nM
A549
  IC50: 15 nM
SKOV-3
  IC50: 41 nM
LNCaP
  IC50: 4.2 nM

## CCC(C=CC1OC(=O)C=CC1C)=CC(C)CC=CC(C)=CC(C)C(=O)C(C)C(O)C(C)CC(C)=CC(=O)NCCNC (stereo not drawn) [Compound 16]
NCI/ADR
  IC50: 460 nM
MCF-7
  IC50: 3.2 nM
CCRF-CEM
  IC50: 1.8 nM
CCRF-CEM/PTX
  IC50: 29 nM
A549
  IC50: 3.5 nM
SKOV-3
  IC50: 9.7 nM
LNCaP
  IC50: 27.2 nM

## CCC(C=CC1OC(=O)C=CC1C)=CC(C)CC=CC(C)=CC(C)C(=O)C(C)C(O)C(C)CC(C)=CC(=O)NCCNC(C)C (stereo not drawn) [Compound 17]
NCI/ADR
  IC50: 740 nM
MCF-7
  IC50: 3.5 nM
A549
  IC50: 4.7 nM
SKOV-3
  IC50: 44 nM

## CCC(C=CC1OC(=O)C=CC1C)=CC(C)CC=CC(C)=CC(C)C(=O)C(C)C(O)C(C)CC(C)=CC(=O)NCc1c(C)c(=O)n2c(=O)c(C)c(C)n12 (stereo not drawn) [Compound 18]
NCI/ADR
  IC50: 380 nM
MCF-7
  IC50: 3.4 nM
A549
  IC50: 4.3 nM
SKOV-3
  IC50: 15 nM

## CCC(C=CC1OC(=O)C=CC1C)=CC(C)CC=CC(C)=CC(C)C(=O)C(C)C(O)C(C)CC(C)=CC(=O)NCCNC(=O)CCC1=NC(=Cc2c(C)cc(C)n2B(F)F)C=C1 (stereo not drawn) [Compound 19]
NCI/ADR
  IC50: 300 nM
MCF-7
  IC50: 3.4 nM
A549
  IC50: 4.6 nM
SKOV-3
  IC50: 20 nM
LNCaP
  IC50: 1.6 nM

## CCC(C=CC1OC(=O)C=CC1C)=CC(C)CC=CC(C)=CC(C)C(=O)C(C)C(O)C(C)CC(C)=CC(=O)NCCCCCNC(=O)COc1ccc(C2=NC(=Cc3ccc(-c4cccs4)n3B(F)F)C=C2)cc1 (stereo not drawn) [Compound 20]
NCI/ADR
  IC50: 1000 nM
MCF-7
  IC50: 210 nM
A549
  IC50: 250 nM
SKOV-3
  IC50: 570 nM
LNCaP
  IC50: 87.4 nM

## CCC(C=CC1OC(=O)C=CC1C)=CC(C)CC=CC(C)=CC(C)C(=O)C(C)C(O)C(C)CC(C)=CC(=O)NCC(=O)O (stereo not drawn) [Compound 21]
NCI/ADR
  IC50: 260 nM
MCF-7
  IC50: 31 nM
A549
  IC50: 37 nM
SKOV-3
  IC50: 57 nM
LNCaP
  IC50: 28.6 nM

## CCC(=C/[C@H](C)C/C=C/C(C)=C/[C@@H](C)C(=O)[C@@H](C)[C@H](O)[C@@H](C)C/C(C)=C/C(=O)O)/C=C/[C@@H]1OC(=O)C=C[C@@H]1C [LMB, Leptomycin B, reference compound]
NCI/ADR; Homo sapiens, NCI/ADR-RES
  IC50: 1 nM
MCF-7; MCF7
  IC50: 0.29 nM
CCRF-CEM
  IC50: 0.65 nM
CCRF-CEM/PTX
  IC50: 0.41 nM
UMUC-3
  EC50: 0.33 nM
Mammalian cells
  cytotoxicity towards mammalian cells: remarkable cytotoxicity
[2]
  toxicity in phase 1 trial: extreme toxicity
K562 cells; Homo sapiens
  IC50: 0.6 nM
A549
  IC50: 0.3 nM
T24
  EC50: 1.2 nM
SKOV-3; SK-OV-3
  IC50: 1.5 nM
LNCaP; Homo sapiens
  IC50: 0.3 nM
MB 49 cells; Mus musculus, MB49
  IC50: 1.8 nM
[1]
  Mouse MTD: 2.5 mg/kg

## CCC(=C/[C@H](C)C/C=C/C(C)=C/[C@@H](C)C(=O)[C@@H](C)[C@H](O)[C@@H](C)C/C(C)=C/C(=O)NCCCCCCNC(=O)CCCC[C@H]1SC[C@@H]2NC(=O)N[C@@H]21)/C=C/[C@@H]1OC(=O)C=C[C@@H]1C [biotinylated LMB]
[3]
  activity of LMB analog: active

## CCC(=C/[C@H](C)C/C=C/C(C)=C/[C@@H](C)C(=O)[C@@H](C)[C@H](O)[C@@H](C)C/C(C)=C/C(=O)OC)/C=C/[C@@H]1OC(=O)CC(C[N+](=O)[O-])[C@@H]1C (stereo partly drawn) [nitromethyl valerolactone LMB analog]
[3]
  activity of LMB analog: inactive
